Reference: patent US10905676B2, “Angiotensin II receptor antagonist for the prevention or treatment of systemic diseases in cats” (priority 2017, dated 2021)

System: cats with moderate to severe systemic hypertension
Assay: European study of efficacy and safety in cats with systemic hypertension (Example 6)
Assay type: in vivo
Description: A European study was conducted to investigate the efficacy and safety of telmisartan oral solution for the treatment of systemic hypertension in cats. The first part or phase of the study (Day 1 to Day 28) occurred over a 28-day placebo-controlled, double-blinded treatment period (efficacy phase of the study). […] The target population for this study was domestic client-owned cats with moderate to severe systemic hypertension (cats having a mSBP of at least about 160 mmHg). […] A schematic overview of the study and the two phases of treatment is depicted in FIG. 3. There was a similar pre-treatment mSBP observed for both treatment groups (about 177-179 mmHg). Cats diagnosed with moderate to severe systemic hypertension in compliance with the “ACVIM consensus statement: Guidelines for the Identification, Evaluation, and Management of Systemic Hypertension in Dogs and Cats” (Brown et al. Guidelines for the identification, evaluation, and management of systemic hypertension in dogs and cats. ACVIM Consensus Statement. J Vet Intern Med 2007; 21: 542-558) at two separate Screening Visits within 14 days of the start of treatment were eligible for the study. The etiology of the hypertension was classified as due to chronic kidney disease (CKD), due to hyperthyroidism, due to both CKD and hyperthyroidism or as idiopathic hypertension. Cats were not allowed any substances which are known to affect blood pressure from 14 days prior to the start of treatment. […] A 5 mL dosing syringe (demarcated in 0.25 mL increments) was used for the first phase and a 2 mL dosing syringe (demarcated in 0.1 mL increments, to achieve down titrations as necessary) to perform dosing either directly into the mouth of the cat or with a very small amount of food. For the first (efficacy) phase of the study, all recruited cats were examined on two visits at Day 14 and Day 28. Examinations included measurement of mSBP, a complete physical examination, fundoscopic examination, an assessment of quality of life, and abbreviated clinical pathology (hematology and biochemistry). […] These cats were further examined, as above, for visits at Days 56, 84 and 120. During the second (extended) phase of the study, it was possible to decrease or down titrate the dose for certain cats as described herein.

Structure (SMILES): CCCc1nc2c(C)cc(-c3nc4ccccc4n3C)cc2n1Cc1ccc(-c2ccccc2C(=O)O)cc1 [telmisartan, 4′-[2-n-propyl-4-methyl-6-(1-methylbenzimidazol-2-yl)-benzimidazol-1-ylmethyl]-biphenyl-2-carboxylic acid]
- mSBP change on Day 28 (2.0 mg/kg once daily oral, n = 165): −24.629 ΔmmHg
- mSBP change on Day 14 (2.0 mg/kg once daily oral, n = 174): −19.219 ΔmmHg
- Mean SABP reduction compared to baseline at respective visit (SABP at baseline between 160-179 mmHg (171.9), Day 14, n = 98): −16.7 ΔmmHg
- Mean SABP reduction compared to baseline at respective visit (SABP at baseline between 160-179 mmHg, Day 28, n = 94): −22.9 ΔmmHg
- Mean SABP reduction compared to baseline at respective visit (SABP at baseline between 160-179 mmHg, Day 56, n = 87): −24.7 ΔmmHg
- Mean SABP reduction compared to baseline at respective visit (SABP at baseline between 160-179 mmHg, Day 84, n = 85): −23.2 ΔmmHg
- Mean SABP reduction compared to baseline at respective visit (SABP at baseline between 160-179 mmHg, Day 120, n = 81): −23.5 ΔmmHg
- Mean SABP reduction compared to baseline at respective visit (SABP at baseline between 180-200 mmHg (188.4), Day 14, n = 76): −22.3 ΔmmHg
- Mean SABP reduction compared to baseline at respective visit (SABP at baseline between 180-200 mmHg, Day 28, n = 71): −26.6 ΔmmHg
- Mean SABP reduction compared to baseline at respective visit (SABP at baseline between 180-200 mmHg, Day 56, n = 65): −29.6 ΔmmHg
- Mean SABP reduction compared to baseline at respective visit (SABP at baseline between 180-200 mmHg, Day 84, n = 63): −30.7 ΔmmHg
- Mean SABP reduction compared to baseline at respective visit (SABP at baseline between 180-200 mmHg, Day 120, n = 63): −32.9 ΔmmHg
- % of cats with Systolic Blood Pressure < 160 mmHg (Visit Day 14): 46.6%
- N of cats with Systolic Blood Pressure < 160 mmHg (Visit Day 14): 81
- % of cats with Systolic Blood Pressure < 160 mmHg (Visit Day 56): 70.9%
- N of cats with Systolic Blood Pressure < 160 mmHg (Visit Day 56): 105
- % of cats with Systolic Blood Pressure < 160 mmHg (Visit Day 84): 67.8%
- N of cats with Systolic Blood Pressure < 160 mmHg (Visit Day 84): 97
- % of cats with Systolic Blood Pressure < 160 mmHg (Visit Day 120): 73.1%
- N of cats with Systolic Blood Pressure < 160 mmHg (Visit Day 120): 98
- % of cats with Systolic Blood Pressure < 160 mmHg (Visit day 28): 62.0%
- N of cats with Systolic Blood Pressure < 160 mmHg (Visit day 28): 101
- cats with an increased appetite (between day −1 and 28): 11%
- reduction in mSBP (mean change in SBP from baseline) (each visit day, whole study duration of 120 days): greater than 20 mmHg
- cats with adverse events (efficacy phase, 115 adverse events coded for 58 cats): 29.9%
- cats in which it was possible to down-titrate the dose to <2 mg/kg (extended use phase): 21.7%
- Mean Systolic Blood Pressure change on Day 120 compared to baseline SBP (extended use phase, n = 144 cats): −27.62 ΔmmHg
- Mean Systolic Blood Pressure change on Day 84 compared to baseline SBP (extended use phase, n = 148 cats): −26.50 ΔmmHg
- Mean Systolic Blood Pressure change on Day 56 compared to baseline SBP (extended use phase, n = 152 cats): −26.94 ΔmmHg
- changes in a physical or clinical pathology parameter (following 120 days of treatment): no clinically relevant changes
- mean body weight, mean heart rate, respiratory rate, and rectal temperature (following 120 days treatment): no clinically significant change
- cats with at least one adverse event (second (extended use) phase, 62 cats): 32.0%
